Test results from patent US8183272B2, “Indanyl compounds” (Daiichi Sankyo Company, Limited, priority 2008, dated 2012).

biological target: T1, human calcium-sensing receptor (CaSR) (Homo sapiens, UniProt P41180); test: Inhibitory activity on calcium-sensing receptor (CaSR) using intracellular calcium increase as an indicator (FLIPR, CHO/hCaSR); type: cell-based; settings: CHO/hCaSR cells; intracellular Ca increase induced by CaCl2; test compound 1.05 to 10,000 nM
T1 construct: expressed in transfected cells; host or cells: CHO cells (CHO/hCaSR)
T1 sequence (P41180 20-1078): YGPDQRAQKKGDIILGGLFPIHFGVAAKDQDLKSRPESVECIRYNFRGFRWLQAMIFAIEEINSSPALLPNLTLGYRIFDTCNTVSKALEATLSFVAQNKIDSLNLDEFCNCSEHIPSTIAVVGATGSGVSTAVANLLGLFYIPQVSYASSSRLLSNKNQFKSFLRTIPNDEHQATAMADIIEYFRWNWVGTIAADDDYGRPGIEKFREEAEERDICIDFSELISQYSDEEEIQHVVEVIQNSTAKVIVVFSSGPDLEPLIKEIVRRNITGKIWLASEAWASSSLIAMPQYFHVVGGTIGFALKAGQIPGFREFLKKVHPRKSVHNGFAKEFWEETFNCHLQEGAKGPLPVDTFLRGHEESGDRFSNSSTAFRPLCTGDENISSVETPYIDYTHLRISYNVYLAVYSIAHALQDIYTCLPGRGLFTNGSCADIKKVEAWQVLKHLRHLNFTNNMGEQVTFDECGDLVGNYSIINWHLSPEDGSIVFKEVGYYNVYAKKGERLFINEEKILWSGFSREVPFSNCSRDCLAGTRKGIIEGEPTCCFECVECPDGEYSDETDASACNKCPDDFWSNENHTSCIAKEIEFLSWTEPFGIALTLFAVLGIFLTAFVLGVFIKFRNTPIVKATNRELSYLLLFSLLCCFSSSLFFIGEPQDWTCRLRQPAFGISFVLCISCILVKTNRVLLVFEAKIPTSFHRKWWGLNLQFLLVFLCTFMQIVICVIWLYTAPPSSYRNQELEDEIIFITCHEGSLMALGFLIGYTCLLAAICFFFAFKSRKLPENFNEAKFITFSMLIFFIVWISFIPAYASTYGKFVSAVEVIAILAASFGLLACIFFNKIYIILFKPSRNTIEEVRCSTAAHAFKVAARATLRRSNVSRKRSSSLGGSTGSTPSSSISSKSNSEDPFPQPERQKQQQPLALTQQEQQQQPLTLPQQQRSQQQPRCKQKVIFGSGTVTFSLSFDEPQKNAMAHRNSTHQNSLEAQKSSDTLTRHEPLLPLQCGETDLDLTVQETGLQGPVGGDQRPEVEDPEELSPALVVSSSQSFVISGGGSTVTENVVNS
Experimental: Evaluation of inhibitory activity on calcium-sensing receptor (CaSR) using intracellular calcium increase as an indicator
The preparation which is prepared by adding CHO/hCaSR to F12 medium (manufactured by Invitrogen) containing 10% fetal bovine serum to have 2×10^5 cells/mL was applied to a 384-well in an amount of 50 μL/well, and then incubated overnight in a CO2 incubator. The culture supernatant was completely removed, the assay buffer (20 mM HEPES, HBSS (Ca and Mg free) containing 2.5 mM probenecid, pH 7.4) containing Calcium 3 (manufactured by Molecular Devices), i.e., a fluorescent intracellular calcium indicator, was added thereto in an amount of 25 μL/well, and the mixture was maintained for 1 hour in a CO2 incubator. Meanwhile, Calcium 3 was prepared according to the protocol enclosed in FLIPR Calcium 3 Assay Kit (manufactured by Molecular Devices). After maintaining it for 1 hour, a solution in which the test compound is prepared to have 2.1 to 20,000 nM (final concentration of 1.05 to 10,000 nM) by an assay buffer was added thereto in an amount of 25 μL/well, and maintained for 15 minutes in a CO2 incubator. Then, the CaCl2 solution prepared to have […] by using the assay buffer was added in an amount of 25 μL/well, and the resulting intracellular Ca increase (i.e., fluorescence intensity) was measured over time using a fluorescence imaging plate reader (FLIPR, manufactured by Molecular Devices). From the data obtained, the difference between the fluorescence intensity before the addition of CaCl2 solution and the maximum fluorescence intensity after the addition of CaCl2 solution was calculated, and the 50% inhibition concentration (IC50) of the test compound was obtained.

Row | SMILES | IC50 [nM]
1 | CC[C@@H](OC[C@H](O)CNC(C)(C)CC1Cc2ccccc2C1)c1ccc(C)cc1CCC(=O)O [Example 40] | ≤ 2350
2 | CCC[C@@H](OC[C@H](O)CNC(C)(C)CC1Cc2ccccc2C1)c1cccc(F)c1CCC(=O)O [Example 53] | ≤ 2270
3 | C[C@@H](OC[C@H](O)CNC(C)(C)CC1Cc2ccccc2C1)c1ccc(Cl)cc1CCCCC(=O)O [Example 72] | ≤ 2190
4 | CC[C@@H](OC[C@H](O)CNC(C)(C)CC1Cc2ccccc2C1)c1cc(F)c(F)cc1CCC(=O)O [Example 79] | ≤ 2250
5 | CCC[C@@H](OC[C@H](O)CNC(C)(C)CC1Cc2ccccc2C1)c1ccc(Cl)cc1CCC(=O)O [Example 77] | ≤ 2190
6 | CCOc1cccc([C@@H](C)OC[C@H](O)CNC(C)(C)CC2Cc3ccccc3C2)c1CCC(=O)O [Example 62] | ≤ 2270
7 | CCC[C@@H](OC[C@H](O)CNC(C)(C)CC1Cc2ccccc2C1)c1ccccc1CCC(=O)O [Example 21] | ≤ 2350
8 | CCC[C@@H](OC[C@H](O)CNC(C)(C)CC1Cc2ccccc2C1)c1cccc(C)c1CCC(=O)O [Example 52] | ≤ 2280
9 | CC(C)(CC1Cc2ccccc2C1)NC[C@@H](O)CO[C@@H](c1ccccc1CCC(=O)O)C1CC1 [Example 29] | ≤ 2360
10 | C[C@@H](OC[C@H](O)CNC(C)(C)CC1Cc2ccccc2C1)c1cc(F)ccc1CCCCC(=O)O [Example 45] | ≤ 2270
11 | Cc1cccc(CCC(=O)O)c1C(C)OC[C@H](O)CNC(C)(C)CC1Cc2ccccc2C1 (stereo partly drawn) [Example 32] | ≤ 2420
12 | C[C@@H](OC[C@H](O)CNC(C)(C)CC1Cc2ccccc2C1)c1cccc(Cl)c1CCC(=O)O [Example 71] | ≤ 2320
13 | C[C@@H](OC[C@H](O)CNC(C)(C)CC1Cc2ccccc2C1)c1cccc(F)c1CCCCC(=O)O [Example 48] | ≤ 2270
14 | CC[C@@H](OC[C@H](O)CNC(C)(C)CC1Cc2ccccc2C1)c1cccc(Cl)c1CCC(=O)O [Example 75] | ≤ 2250
15 | CC[C@@H](OC[C@H](O)CNC(C)(C)CC1Cc2ccccc2C1)c1cccc(F)c1CCC(=O)O [Example 39] | ≤ 2330
16 | C[C@@H](OC[C@H](O)CNC(C)(C)CC1Cc2ccccc2C1)c1ccccc1CCCCC(=O)O [Example 13, 5-{2-[(1R)-1-{[(2R)-3-{[1-(2,3-Dihydro-1H-inden-2-yl)-2-methylpropan-2-yl]amino}-2-hydroxypropyl]oxy}ethyl]phenyl}pentanoic acid] | ≤ 2350
17 | COc1ccc([C@@H](C)OC[C@H](O)CNC(C)(C)CC2Cc3ccccc3C2)c(CCC(=O)O)c1 [Example 16] | ≤ 2340
18 | Cc1cccc([C@@H](C)OC[C@H](O)CNC(C)(C)CC2Cc3ccccc3C2)c1CCCCC(=O)O [Example 47] | ≤ 2280
19 | CC[C@@H](OC[C@H](O)CNC(C)(C)CC1Cc2ccccc2C1)c1cc(F)cc(F)c1CCC(=O)O [Example 80] | ≤ 2250
20 | CC[C@@H](OC[C@H](O)CNC(C)(C)CC1Cc2ccccc2C1)c1ccccc1CCC(=O)O [Example 18] | ≤ 2420
21 | CC[C@@H](OC[C@H](O)CNC(C)(C)CC1Cc2ccccc2C1)c1cc(F)c(C)cc1CCCCC(=O)O [Example 61] | ≤ 2140
22 | C[C@@H](OC[C@H](O)CNC(C)(C)CC1Cc2ccccc2C1)c1cccc(C(F)(F)F)c1CCC(=O)O [Example 10, 3-{2-[(1R)-1-{[(2R)-3-{[1-(2,3-Dihydro-1H-inden-2-yl)-2-methylpropan-2-yl]amino}-2-hydroxypropyl]oxy}ethyl]-6-(trifluoromethyl)phenyl}propanoic acid] | ≤ 2170
23 | COc1cc(F)cc([C@@H](C)OC[C@H](O)CNC(C)(C)CC2Cc3ccccc3C2)c1CCC(=O)O [Example 35] | ≤ 2260
24 | CCOc1cccc([C@@H](C)OC[C@H](O)CNC(C)(C)CC2Cc3ccccc3C2)c1CCCCC(=O)O [Example 63] | ≤ 2150
25 | CCC[C@@H](OC[C@H](O)CNC(C)(C)CC1Cc2ccccc2C1)c1cccc(OC)c1CCC(=O)O [Example 55] | ≤ 2210
26 | C[C@@H](OC[C@H](O)CNC(C)(C)CC1Cc2ccccc2C1)c1c(F)cccc1CCC(=O)O [31 low polarity, 3-{2-[(1R)-1-{[(2R)-3-{[1-(2,3-dihydro-1H-inden-2-yl)-2-methylpropan-2-yl]amino}-2-hydroxypropyl]oxy}ethyl]-3-fluorophenyl}propanoic acid] | ≤ 2400

Next, values leading:

Row | IC50 [nM] | SMILES
27 | ≤ 2400 | C[C@@H](OC[C@H](O)CNC(C)(C)CC1Cc2ccccc2C1)c1cccc(F)c1CCC(=O)O [Example 7, 3-{2-[(1R)-1-{[(2R)-3-{[1-(2,3-Dihydro-1H-inden-2-yl)-2-methylpropan-2-yl]amino}-2-hydroxypropyl]oxy}ethyl]-6-fluorophenyl}propanoic acid]
28 | ≤ 2090 | CC(C)Oc1cccc([C@@H](C)OC[C@H](O)CNC(C)(C)CC2Cc3ccccc3C2)c1CCCCC(=O)O [Example 65]
29 | ≤ 2320 | C[C@@H](OC[C@H](O)CNC(C)(C)CC1Cc2ccccc2C1)c1ccc(Cl)cc1CCC(=O)O [Example 69]
30 | ≤ 2420 | Cc1ccc(CCC(=O)O)c([C@@H](C)OC[C@H](O)CNC(C)(C)CC2Cc3ccccc3C2)c1 [Example 6, 3-{2-[(1R)-1-{[(2R)-3-{[1-(2,3-Dihydro-1H-inden-2-yl)-2-methylpropan-2-yl]amino}-2-hydroxypropyl]oxy}ethyl]-4-methylphenyl}propanoic acid]
31 | ≤ 2280 | C[C@@H](OC[C@H](O)CNC(C)(C)CC1Cc2ccccc2C1)c1ccccc1CCCCCC(=O)O [Example 67]
32 | ≤ 2170 | C[C@@H](OC[C@H](O)CNC(C)(C)CC1Cc2ccccc2C1)c1ccc(C(F)(F)F)cc1CCC(=O)O [Example 11, 3-{2-[(1R)-1-{[(2R)-3-{[1-(2,3-Dihydro-1H-inden-2-yl)-2-methylpropan-2-yl]amino}-2-hydroxypropyl]oxy}ethyl]-5-(trifluoromethyl)phenyl}propanoic acid]
33 | ≤ 2420 | Cc1cccc([C@@H](C)OC[C@H](O)CNC(C)(C)CC2Cc3ccccc3C2)c1CCC(=O)O [Example 42]
34 | ≤ 2190 | CCC[C@@H](OC[C@H](O)CNC(C)(C)CC1Cc2ccccc2C1)c1cccc(Cl)c1CCC(=O)O [Example 78]
35 | ≤ 2310 | CC(OC[C@H](O)CNC(C)(C)CC1Cc2ccccc2C1)c1c(CCC(=O)O)ccc(F)c1F (stereo partly drawn) [Example 36]
36 | ≤ 2280 | CCC[C@@H](OC[C@H](O)CNC(C)(C)CC1Cc2ccccc2C1)c1ccc(C)cc1CCC(=O)O [Example 54]
37 | ≤ 2340 | C[C@@H](OC[C@H](O)CNC(C)(C)CC1Cc2ccccc2C1)c1ccccc1CCOCC(=O)O [Example 83, (2-{2-[(1R)-1-{[(2R)-3-{[1-(2,3-Dihydro-1H-inden-2-yl)-2-methylpropan-2-yl]amino}-2-hydroxypropyl]oxy}ethyl]phenyl}ethoxy)acetic acid]
38 | ≤ 2310 | C[C@@H](OC[C@H](O)CNC(C)(C)CC1Cc2ccccc2C1)c1cc(F)cc(F)c1CCC(=O)O [Example 27]
39 | ≤ 2320 | CC(OC[C@H](O)CNC(C)(C)CC1Cc2ccccc2C1)c1c(Cl)cccc1CCC(=O)O (stereo partly drawn) [Example 33]
